Source: US20100119499A1, “STILBENE-BASED COMPOSITIONS AND METHODS OF USE THEREFOR” (priority 2009, published 2010)
Like-named read-outs stand apart in the source and are kept apart here.

Assays:
MAO leukemia cell line = conditions: relative to cis-resveratrol; cited from earlier work
DPPH radical scavenging = conditions: converted value in brackets
[1] = ABAP-derived peroxyl radicals; cited from earlier work
healthy, adult humans = experiment: oral pterostilbene in humans, whole blood glucose by finger prick glucometer; format: in vivo
Procedure: In work described herein using pterostilbene orally in humans (supplied by Chromadex, 10005 Muirlands Boulevard, Suite G, Irvine, Calif. 92618, USA) dosing of oral pterostilbene was initially started at a lower dose than the calculated HED, with the intent of titrating the dose up as needed.
The test subject was immediately treated with oral glucose and other carbohydrates and recovered without other incident. […] At oral dosing above 0.165 mg/kg (actual dose tested 20 mg) pterostilbene is capable of inducing profound hypoglycemia (e.g., whole blood glucose at or below 55 mg/dL) and the side effects associated with this condition. Accordingly, at the doses predicted by the FDA/CDER formula, oral administration of pterostilbene to humans would likely be fatal.

normal human fibroblasts = conditions: cited from earlier work
rats = conditions: doses 10 mg/kg up to 40 mg/kg bodyweight; cited from earlier work
[2] = total reactive antioxidant potential against ABAP-derived peroxyl radicals; conditions: converted value in brackets
[3] = system: streptozotocin-induced hyperglycemic rats; conditions: cited from earlier work
humans = experiment: oral pterostilbene combined with nutrients, athletic performance in humans; format: in vivo, human
Procedure: Additional work described herein addressed the effects of combining oral pterostilbene with various nutrients on athletic performance. Specifically, oral pterostilbene was administered with creatine supplements, and the effect of this combination was compared with the effect of creatine supplements alone.
The addition of exogenous dietary carbohydrates such as glucose, isolmaltulose, leucrose, trehalose, trehalulose, amylose, ribose, and maltodextrin to the creatine-containing supplement allowed for even higher pterostilbene dosing (up to 25 mg of oral pterostilbene) and produced an even more pronounced, immediate increase in athletic performance without the onset of hypoglycemia.
While not wishing to be bound by any particular theory, the inventors believe that pterostilbene increases or otherwise effects a change in the rate and quantity of the transfer of these nutrients from the blood plasma into the tissues and organs. Such dietary nutrients include, but are not limited to, creatine and its salts esters, amides and chelates, creatinol-O-phosphate, branched chain amino acids (leucine, isoleucine, valine) and their salts, esters, amides and chelates, branched chain keto-acids including, but not limited to ketoisocaproate and its salts, other ergogenic, performance-enhancing amino acids including, but not limited to, taurine, beta-alanine, arginine, ornithine, aspartic acid, glutamine, glutaric acid, agmatine, citrulline, norvaline, glycine, cysteine and their salts, ester, amides and chelates, performance enhancing dipeptides including, but not limited to, carnitine, anserine and carnosine and their salts and esters and proteins that are known to contain dipeptides such as whey or soy or egg protein isolates or concentrates or any combination of these non-carbohydrate based dietary nutrients.
Further, the addition and oral consumption of one or more exogenous dietary carbohydrates, including but not limited to rice oligodextrin, amylose, amylopectin, glucose, maltodextrin, maltose, isolmaltulose, leucrose, trehalulose, ribose, trehalose, and/or fructose in conjunction with pterostilbene and a non-carbohydrate based dietary nutrient or nutrients simultaneously further increases the athletic performance-enhancing effects of pterostilbene and the non-carbohydrate dietary nutrient(s) by up to 50% and also increases the tolerability of pterostilbene in humans by up to 50%.

[4] = inhibition of citronellal thermo-oxidation; conditions: converted value in brackets
[5] = 5 mg oral (0.0486 mg/kg) added to creatine-containing liquid supplement vs supplement alone, one healthy person
[6] = pterostilbene plus non-carbohydrate nutrient(s) plus exogenous dietary carbohydrates, oral

Structure (SMILES)	ability to induce apoptosis compared to cis-resveratrol (MAO leukemia cell line)	EC50, scavenging of DPPH radicals (DPPH radical scavenging)	total reactive antioxidant potential [1]	drop of whole blood glucose level (healthy, adult humans; 30 mg oral single dose (about 0.248 mg/kg), one healthy person, within fifteen minutes)	oral dose above which profound hypoglycemia and its side effects are induced (healthy, adult humans; profound hypoglycemia e.g. whole blood glucose at or below 55 mg/dL, actual dose tested 20 mg)	reduction of thiobarbituric acid reactive substances (TBARS) production (normal human fibroblasts)	adverse effects (rats)	total reactive antioxidant potential [2]	lowering of blood glucose level [3]	effect on athletic performance (humans; 3 mg to 20 mg added to a creatine-containing supplement)	immediate increase in anaerobic work capacity (humans; [5])	immediate increase in maximal exertion power (humans; [5])	oral dose possible without the onset of hypoglycemia (humans; human, in vivo, po)	further increase of athletic performance-enhancing effects by added carbohydrates (humans; [6])	increase of tolerability in humans by added carbohydrates (humans; [6])	EQ value, inhibition of cintronellal thermo-oxidation [4]
Oc1ccc(/C=C/c2cc(O)cc(O)c2)cc1 [trans-reseveratrol]	ten times more potent	–	–	–	–	–	–	–	–	–	–	–	–	–	–	–
COc1cc(/C=C/c2ccc(O)cc2)cc(OC)c1 [pterostilbene, trans-3,5-dimethoxy-4′-hydroxystilbene]	–	~7680 µg/mL	237 ± 58 mM	about 50 mg/dL	above 0.165 mg/kg	61%	no adverse effects noted	~60.7 mg/mL	42%	improves athletic performance dramatically	~12%	~8%	up to 25 mg	up to 50%	up to 50%	~90.9 mg/mL
